The values below are quoted from earlier work in patent publication EP0801943A2, “Cosmetic and dermatological photoprotective compositions containing a triazine derivative and alkyl and/or dialkylesters of alpha, omega-alkanedicarboxylic acid” (Beiersdorf Aktiengesellschaft, priority 1996, dated 1997).

The conditions of the data set: maximum amount of the filter that known solvents (Bekannte Lösungsmittel) can dissolve; prior-art statement, no test described.

`CCCCC(CC)COC(=O)c1ccc(Nc2nc(Nc3ccc(C(=O)OCC(CC)CCCC)cc3)nc(Nc3ccc(C(=O)OCC(CC)CCCC)cc3)n2)cc1` (stereo not shown) [UVINUL® T 150, 4,4',4''-(1,3,5-Triazin-2,4,6-triyltriimino)-tris-benzoesäure-tris(2-ethylhexylester)]: the “Löslichkeit in Lipiden” value is at most 15 Gew.-%.
